The assay deals with Cladosporium cucumerinum. Kind of assay: Antifungal activity against phytopathogenic Cladosporium cucumerinum by bioautographic TLC assay. It counts as functional.

Each structure is given as a SMILES string.

We go through two molecules from ChEMBL document CHEMBL1156091, “Stereoselective total synthesis of a potent natural antifungal compound (6S)-5,6,dihydro-6-[(2R)-2-hydroxy-6-phenyl hexyl]-2H-pyran-2-one” (2009).

`O=C1C=CC[C@@H](C[C@H](O)CCCCc2ccccc2)O1` came in with an MIC of 1 µg. `Clc1ccc(COC(Cn2ccnc2)c2ccc(Cl)cc2Cl)c(Cl)c1` (configuration not stated) [MICONAZOLE] showed an MIC of 1 µg.
